{"source": "paper PMC5095700", "about": "(Biochemistry, 2016)", "molecular_target": "T1, Glucosamine/glucosaminide N-acetyltransferase (GlmA) (Clostridium acetobutylicum, UniProt Q97ML2, Y297F)", "T1 sequence (Q97ML2 1-320 Y297F)": "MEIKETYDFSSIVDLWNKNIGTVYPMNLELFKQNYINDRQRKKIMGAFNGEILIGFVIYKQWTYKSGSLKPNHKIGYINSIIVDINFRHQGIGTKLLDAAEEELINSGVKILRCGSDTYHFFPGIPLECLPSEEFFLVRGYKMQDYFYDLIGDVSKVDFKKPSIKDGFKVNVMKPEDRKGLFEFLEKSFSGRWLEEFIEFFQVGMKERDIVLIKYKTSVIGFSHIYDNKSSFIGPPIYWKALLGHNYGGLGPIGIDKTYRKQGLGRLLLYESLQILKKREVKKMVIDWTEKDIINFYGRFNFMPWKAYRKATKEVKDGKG", "experiment": "X-ray crystal structure of Y297F variant", "format": "binding"}
{"smiles": "CC(=O)SCCNC(=O)CCNC(=O)[C@H](O)C(C)(C)COP(=O)(O)OP(=O)(O)OC[C@H]1O[C@@H](n2cnc3c(N)ncnc32)[C@H](O)[C@@H]1OP(=O)(O)O", "note": "[AcCoA, acetyl CoA]", "values": [{"measurement": "X-ray crystal structure of Y297F variant (1.8 Å)", "result": "electron density was clearly visible for the acetyl group of the cofactor bound in the C-terminal domain"}]}
